# From patent US5599902A, “Cancer inhibitory peptides” (Arizona Board of Regents acting on behalf of Arizona State …, priority 1994, dated 1997)
# Key:
# [1] = test system: OVCAR-3; experiment: Human cancer cell line growth inhibition, Ovarian OVCAR-3; format: cell-based; settings: Ovarian OVCAR-3, 48 hours
# Procedure: (§1) Cancer Inst. […] Cancer Inst. Reports, Vol 81, No. 14, Page 1088, Jul.
# (§2) The only difference is historical usage.
# (§3) Percent Growths are calculated for each dose.
# (§4) This is the "baseline count" or "Tzero reading".
# [2] = test system: SF-2X5; experiment: Human cancer cell line growth inhibition, CNS SF-2X5; format: cell-based; settings: CNS SF-2X5, 48 hours
# Procedure: as §1, §2, §3, §4
# [3] = test system: A4X8; experiment: Human cancer cell line growth inhibition, Renal A4X8; format: cell-based; settings: Renal A4X8, 48 hours
# Procedure: as §1, §2, §3, §4
# [4] = test system: NCI-H460; experiment: Human cancer cell line growth inhibition, Lung-NSC NCI-H460; format: cell-based; settings: Lung-NSC NCI-H460, 48 hours
# Procedure: as §1, §2, §3, §4
# [5] = test system: KM20L2; experiment: Human cancer cell line growth inhibition, Colon KM20L2; format: cell-based; settings: Colon KM20L2, 48 hours
# Procedure: as §1, §2, §3, §4
# [6] = test system: SK-MEL-5; experiment: Human cancer cell line growth inhibition, Melanoma SK-MEL-5; format: cell-based; settings: Melanoma SK-MEL-5, 48 hours
# Procedure: as §1, §2, §3, §4
# [7] = test system: PS-388 Leukemia cell line; experiment: PS-388 mouse leukemia cell line growth inhibition; format: cell-based; settings: Mouse Leukemia PS-388, 48 hours
# Procedure: as §2, §3, §4
# [8] = test system: L1210 murine leukemia cells; experiment: Activity against L1210 murine leukemia cells (IC50); format: cell-based
# Source text: A molecule (22c) was designed based on the conformational similarities with (6R)-isodolastatin 10 (See FIGS. 1a and 1b). The molecule was then synthesized by the procedure outlined in this application.
# [9] = test system: P388 Lymphocytic Leukemia; experiment: Murine in vivo system: P388 Lymphocytic Leukemia, T/C
# Source text: (§5) The synthesis of potentially useful peptides presents one of the most essential and promising approaches to new types of anticancer and immunosuppressant drugs. The Dolastatins, an unprecedented series of linear and cyclic antineoplastic and/or cytostatic peptides isolated from Indian Ocean sea hare Dolabella auricularia represent excellent leads for synthetic modification. The very productive sea hare Dolabella auricularia has produced a number of structurally distinct peptides with excellent antineoplastic activity. Presently dolastatin 10, a linear pentapeptide represents the most important member and is a potentially useful antineoplastic agent. […] Recently the total synthesis and absolute configuration of this structurally unique and biologically active peptide was reported.
# (§6) Experimental Anticancer Activity of Dolastatin 10 in Murine in vivo Systems, T/C (μg/kg)
# [10] = test system: L1210 Lymphocytic Leukemia; experiment: Murine in vivo system: L1210 Lymphocytic Leukemia, T/C
# Source text: as §5, §6
# [11] = test system: B16 Melanoma; experiment: Murine in vivo system: B16 Melanoma, T/C
# Source text: as §5, §6
# [12] = test system: M5076 Ovary Sarcoma; experiment: Murine in vivo system: M5076 Ovary Sarcoma, T/C
# Source text: as §5, §6
# [13] = test system: LOX Human Melanoma Xenograft; experiment: LOX Human Melanoma Xenograft to Nude Mouse, T/C; format: in vivo
# Source text: as §6
# [14] = test system: Human Mammary Xenograft; experiment: Human Mammary Xenograft Nude Mouse, T/C; format: in vivo
# Source text: as §5, §6
# [15] = test system: OVCAR-3 Human Ovary Xenograft; experiment: OVCAR-3 Human Ovary Xenograft Nude Mouse, T/C; format: in vivo; settings: OVCAR-3 xenograft, dose 40 μg/kg
# Source text: as §5, §6
# [16] = test system: MX-1 Human Mammary Xenograft; experiment: MX-1 Human Mammary Xenograft (Tumor Regression), T/C; format: in vivo, Murine
# Source text: as §5, §6
# [17] = LOX in separate experiments, dose 9.0 μg/kg
# [18] = LOX in separate experiments, dose 26 μg/kg
# [19] = LOX in separate experiments, dose 43 μg/kg
compound,measurement,setting,value
Dov-Val-Dil-Dap methyl ester [compound 21],GI-50,[1],0.0035 µg/mL
same,LC-50,[1],> 1 µg/mL
same,TGI,[1],0.026 µg/mL
same,GI-50,[2],0.0038 µg/mL
same,LC-50,[2],> 1 µg/mL
same,TGI,[2],> 0.035 µg/mL
same,GI-50,[3],0.02 µg/mL
same,LC-50,[3],> 1 µg/mL
same,TGI,[3],> 1 µg/mL
same,GI-50,[4],0.0022 µg/mL
same,LC-50,[4],> 1 µg/mL
same,TGI,[4],0.021 µg/mL
same,GI-50,[5],0.021 µg/mL
same,LC-50,[5],> 1 µg/mL
same,TGI,[5],0.23 µg/mL
same,GI-50,[6],0.0087 µg/mL
same,LC-50,[6],> 1 µg/mL
same,TGI,[6],> 1 µg/mL
same,ED-50,[7],0.0297 µg/mL
Z-Val-Dil-Dap-Phenethylamine [compound 18],GI-50,[1],0.051 µg/mL
same,LC-50,[1],0.99 µg/mL
same,TGI,[1],0.24 µg/mL
same,GI-50,[2],0.14 µg/mL
same,LC-50,[2],> 1 µg/mL
same,TGI,[2],0.43 µg/mL
same,GI-50,[3],0.16 µg/mL
same,LC-50,[3],> 1 µg/mL
same,TGI,[3],0.52 µg/mL
same,GI-50,[4],0.21 µg/mL
same,LC-50,[4],> 1 µg/mL
same,TGI,[4],0.66 µg/mL
same,GI-50,[5],0.24 µg/mL
same,LC-50,[5],> 1 µg/mL
same,TGI,[5],0.67 µg/mL
same,GI-50,[6],0.29 µg/mL
same,LC-50,[6],> 1 µg/mL
same,TGI,[6],> 1 µg/mL
same,ED-50,[7],> 1 µg/mL
"CC[C@H](C)[C@@H]([C@@H](CC(=O)N1CCC[C@H]1CCC(=O)N[C@@H](CCSC)C(=O)OC)OC)N(C)C(=O)[C@@H](NC(=O)[C@H](C(C)C)N(C)C)C(C)C [22c, Dov-val-dil-desmethoxy-desmethyl-dolaproine-methionine methyl ester]",IC50,[8],4 µM
CC[C@H](C)[C@@H]([C@@H](CC(=O)N1CCC[C@H]1[C@H](OC)[C@@H](C)C(=O)N[C@@H](Cc1ccccc1)c1nccs1)OC)N(C)C(=O)[C@@H](NC(=O)[C@H](C(C)C)N(C)C)C(C)C [Dolastatin 10],T/C,"[9]; P388, dose 1.63 μg/kg",137
same,T/C,"[9]; P388, dose 3.25 μg/kg",146
same,cures,"[9]; P388, dose 3.25 μg/kg",17%
same,T/C,"[9]; P388, dose 6.5 μg/kg",155
same,cures,"[9]; P388, dose 6.5 μg/kg",17%
same,T/C,"[9]; P388, dose 13.0 μg/kg",toxic
same,T/C,"[10]; L1210, dose 1.63 μg/kg",120
same,T/C,"[10]; L1210, dose 3.25 μg/kg",139
same,T/C,"[10]; L1210, dose 6.5 μg/kg",135
same,T/C,"[10]; L1210, dose 13 μg/kg",152
same,T/C,"[11]; B16, dose 1.44 μg/kg",142
same,T/C,"[11]; B16, dose 3.4 μg/kg",171
same,T/C,"[11]; B16, dose 4.0 μg/kg",205
same,T/C,"[11]; B16, dose 6.67 μg/kg",182
same,T/C,"[11]; B16, dose 11.11 μg/kg",238
same,cures,"[11]; B16, dose 11.11 μg/kg",40%
same,T/C,"[12]; M5076, dose 3.25 μg/kg",151
same,T/C,"[12]; M5076, dose 6.5 μg/kg",142
same,T/C,"[12]; M5076, dose 13 μg/kg",166
same,T/C,"[12]; M5076, dose 26 μg/kg",toxic
same,T/C,[13]; [17],138
same,cures,[13]; [17],17%
same,T/C,"[13]; LOX in separate experiments, dose 15 μg/kg",192
same,T/C,[13]; [18],181
same,cures,[13]; [18],33%
same,T/C,[13]; [19],340
same,cures,[13]; [19],50%
same,T/C,"[13]; LOX, dose 3.25 μg/kg",170
same,cures,"[13]; LOX, dose 3.25 μg/kg",17%
same,T/C,"[13]; LOX, dose 6.5 μg/kg",206
same,cures,"[13]; LOX, dose 6.5 μg/kg",33%
same,T/C,"[13]; LOX, dose 13 μg/kg",301
same,cures,"[13]; LOX, dose 13 μg/kg",50%
same,T/C,"[13]; LOX, dose 26 μg/kg",301
same,cures,"[13]; LOX, dose 26 μg/kg",67%
same,T/C,"[13]; LOX, dose 52 μg/kg",toxic
same,T/C,[14]; dose 6.25 μg/kg,178
same,T/C,[14]; dose 13 μg/kg,137
same,T/C,[14]; dose 26 μg/kg,Toxic
same,T/C,[15],300
same,T/C (Tumor Regression),"[16]; MX-1, dose 6.25 μg/kg",69
same,T/C (Tumor Regression),"[16]; MX-1, dose 13 μg/kg",61
same,T/C (Tumor Regression),"[16]; MX-1, dose 26 μg/kg",50
same,T/C (Tumor Regression),"[16]; MX-1, dose 52 μg/kg",14
